# Data reported in ChEMBL document CHEMBL3608206, “Phenolic 4-hydroxy and 3,5-dihydroxy derivatives of 3-phenoxyquinoxalin-2(1H)-one as potent aldose reductase inhibitors with antioxidant activity” (Bioorg Med Chem Lett, 2015).
# pIC50: −log10 of the molar value.
# How the values were obtained:
# Brain [1] = assay: Antioxidant activity in rat brain assessed as inhibition of MDA production at 100 uM by TBARS assay relative to control; format: functional
# [2] = Antioxidant activity assessed as DPPH radical scavenging activity at 50 uM after 240 mins by spectrophotometric analysis relative to control; format: physicochemical; details: 4 h
# Brain [3] = assay: Antioxidant activity in rat brain assessed as inhibition of MDA production at 10 uM by TBARS assay relative to control; format: functional
# [4] = biological target: Aldo-keto reductase family 1 member B1 (Rattus norvegicus, UniProt P07943); assay: Inhibition of Wistar rat ALR2 using D,L-glyceraldehyde as substrate assessed as oxidation of NADPH preincubated for 10 mins followed by substrate addition measured for 4 mins by spectrophotometric analysis
# [5] = Antioxidant activity assessed as DPPH radical scavenging activity at 100 uM after 240 mins by spectrophotometric analysis relative to control; format: physicochemical; details: 4 h
# [6] = biological target: Aldo-keto reductase family 1 member B1 (Rattus norvegicus) (UniProt P07943); assay: Inhibition of Wistar rat ALR2 using D,L-glyceraldehyde as substrate assessed as oxidation of NADPH at 10 uM preincubated for 10 mins followed by substrate addition measured for 4 mins by spectrophotometric analysis relative to control
SMILES,inhibition at 100 µM (Brain [1]) [%],Activity [2] [%],inhibition at 10 µM (Brain [3]) [%],pIC50 [4],Activity [5] [%],inhibition [6] [%]
O=C(O)Cn1c(=O)c(Oc2cc(O)cc(O)c2)nc2ccccc21,34.5,46.5,5.7,6.03,67.4,
O=C(O)Cn1c(=O)c(Oc2ccc(O)cc2)nc2cc(F)ccc21,14.3,,,7.71,23.7,
O=C(O)Cn1c(=O)c(Oc2ccc(O)cc2)nc2ccccc21,12.3,,,6.43,21.3,
O=C(O)Cn1c(=O)c(Oc2ccc(O)cc2)nc2ccc(Cl)cc21,49.4,47.3,10.1,6.75,84.8,
Cc1c(C)c2c(c(C)c1O)CCC(C)(C(=O)O)O2 (stereo not drawn) [TROLOX],71.3,93.3,90.1,,96.7,
O=C(O)Cn1c(=O)c(Oc2cc(O)cc(O)c2)nc2ccc(Cl)cc21,55.3,83.7,26.6,6.25,91.3,
O=C(O)Cn1c(=O)c(Oc2cc(O)cc(O)c2)nc2cc(Cl)ccc21,24.5,34.5,8.1,6.01,56.5,
O=C(O)Cn1c(=O)c(Oc2cc(O)cc(O)c2)nc2ccc(F)cc21,20.3,29.3,9.3,,38.2,34
O=C(O)Cn1c(=O)c(Oc2cc(O)cc(O)c2)nc2cc(F)ccc21,15.5,,,6.88,25.4,
